# Source: patent US20220354825A1, “PHARMACEUTICAL COMPOSITION FOR PREVENTION OR TREATMENT OF INFLAMMATORY DISEASES COMPRISING NAPHTHOQUINONE DERIVATIVE” (LMITO THERAPEUTICS INC., priority 2019, published 2022)
# Legend:
# NQO1 = NQO1 (Homo sapiens, UniProt P15559); test: In vitro NQO1 enzyme activity assay (cytochrome C reduction); assay type: biochemical; settings: NQO1 2 ng
# Procedure: In order to evaluate the enzymatic activities of compounds on NQO1, the experiments were performed as follows:
# A compound to measure NQO1 enzyme activity was dissolved in DMSO to prepare a 10 mM stock solution, which was then diluted with DMSO to prepare a working solution at a concentration of 250 μM. For an enzyme reaction solution, 50 μL of 1.54 mM cytochrome C solution was added to 900 μL of 50 mM Tris-HCl (pH 7.5) solution containing 0.14% BSA, and then the prepared working solution at 250 μM was added. After adding 20 μL of 100 ng/ml NQO1 protein, […] solution was added so as to adjust the total volume to 1 mL, and then the change of absorbance was measured at 550 nm for 10 minutes. The change of absorbance was measured at 550 nm for 10 minutes using 1 mL cuvette. The reaction rate was observed through the increase in absorbance as cytochrome C was reduced at 550 nm for 10 minutes, to obtain an absorbance value, and the activity for NQO1 was measured as the reduced amount of cytochrome C (nmol reduced cytochrome C/min/μg NQO1 protein).
# Absorption coefficient of Cytochrome C: 21.1 (μmol/mL)-1 cm^−1
# Equipment=Cary 100 UV-Vis Spectrophotometer
# [1] = system: primary bone marrow-derived macrophages (BMDMs); test: NAD+ measurement in macrophages after LPS/ATP; assay type: cell-based, C57BL/6 mouse; settings: LPS/ATP + 1, 5, 10 μM compound
# Procedure: (§1) The primary bone marrow-derived macrophages (BMDMs) isolated from C57BL/6 mouse were incubated in DMEM medium involving macrophage colony-stimulating factor (M-CSF; R&D Systems, 416-ML) during 3 to 5 days. NAD^+ production and NAD^+/NADH ratio were measured in isolated BMDMs through using NAD/NADH Assay Kit(ab65348) supplied by Abcam company. All assays were performed according to the manufacturer's product manual.
# FIGS. 1 to 5 show NAD^+ changes in the macrophage when treated with compounds 6, 16, 17, 22 and 27 respectively (in order from left in the figure: Untreatment, LPS/ATP, LPS/ATP+1 μM compound, LPS/ATP+5 μM compound, and LPS/ATP+10 μM compound).
# [2] = system: primary bone marrow-derived macrophages (BMDMs); test: OCR (oxygen consumption rate) measurement, Seahorse XF24; assay type: cell-based, C57BL/6 mouse; settings: macrophages after treatment of LPS and ATP
# Procedure: The primary bone marrow-derived macrophages (BMDMs) isolated from C57BL/6 mouse were incubated in DMEM medium involving macrophage colony-stimulating factor (M-CSF; R&D Systems, 416-ML) during 3 to 5 days. OCR was measured using Seahorse XF24 Extracellular Flux Analyzer in isolated bone marrow-derived macrophages.
# [3] = system: primary bone marrow-derived macrophages (BMDMs); test: ATP measurement in LPS-activated macrophages; assay type: cell-based, C57BL/6 mouse; settings: LPS + 1, 5, 10 μM compound
# Procedure: The primary bone marrow-derived macrophages (BMDMs) isolated from C57BL/6 mouse were incubated in DMEM medium involving macrophage colony-stimulating factor (M-CSF; R&D Systems, 416-ML) during 3 to 5 days. ATP content in the cell was measured through using ATP colorimetric/fluorometric kit after activation of macrophages by treatment of 100 ng/mL LPS in DMEM medium including […]. All assays were performed according to the manufacturer's product manual.
# FIGS. 13 to 17 show the measurement of ATP amounts in the macrophage when treated with Compounds 6, 16, 17, 22 and 27 respectively (in order from left in the figure: Untreatment, LPS/ATP, LPS/ATP+1 μM compound, LPS/ATP+5 μM compound, and LPS/ATP+10 μM compound).
# [4] = system: primary bone marrow-derived macrophages (BMDMs); test: NAD+/NADH measurement in macrophages after LPS/ATP; assay type: cell-based, C57BL/6 mouse; settings: LPS/ATP + 1, 5, 10 μM compound
# Procedure: as §1, with “ratio was” for “ratio were”
# FIGS. 6 to 10 show NAD^+/NADH ratio changes in the macrophage when treated with compounds 6, 16, 17, and 27 respectively (in order from left in the figure: Untreatment, LPS/ATP, LPS/ATP+1 μM compound, LPS/ATP+5 μM compound, and LPS/ATP+10 μM).
# [5] = system: primary bone marrow-derived macrophages (BMDMs); test: Mitochondrial reactive oxygen species measurement (MitoSox, FACS); assay type: cell-based, C57BL/6 mouse; settings: LPS/ATP + 1, 5, 10 μM compound
# Procedure: The primary bone marrow-derived macrophages (BMDMs) isolated from C57BL/6 mouse were incubated in DMEM medium involving macrophage colony-stimulating factor (M-CSF; R&D Systems, 416-ML) during 3 to 5 days. Isolated BMDMs were stained by 1 μM MitoSox (Molecular Probes M36008) for 15 min. After washing the cells into PBS and collecting the cells, mitochondrial reactive oxygen species was measured by FACS.
# FIGS. 11 and 12 show mitochondrial reactive oxygen species changes in the macrophage when treated with compounds 6 and 27, respectively (in order from left in the figure: Untreatment, LPS/ATP, LPS/ATP+1 μM compound, LPS/ATP+5 μM compound, and LPS/ATP+10 μM compound).
# [6] = system: DSS-induced acute colitis mouse model; test: Efficacy in ulcerative colitis mouse model (DSS-induced acute colitis); assay type: in vivo, C57BL/6 female mouse; settings: 5% DSS for 6 days
# Procedure: DSS-induced acute colitis mouse model was prepared using 6-week-old C57BL/6 female mouse in the following method from Opal S M et al., Jama., 309(11):1154-1162(2013) and Hotchkiss R S et al., Journal of immunology., 176(9):5471-5477(2006).
# The clinical score in colitis were measured daily for body weight, rectal bleeding, total bleeding loss, and fecal concentration during colitis induction.
# For immunohistochemistry of tissue section, mouse spleen, lung and colon were fixed using 10% formalin and embedded in paraffin. Paraffin sections were cut to a thickness of 4 μm, and H&E(hematoxylin and eosin) staining was performed. The histopathological score was measured in accordance with the criteria described in Osuchowski M F, et al., Journal of Immunology, 177(3):1967-74(2006); and Liu W, et al., Cell Research, 25(6): 691-706(2015).
# The sandwich ELISAs and MPO assay were performed according to conventional methods in this field. TNF-α, IL-6, IL-1β, IL-18 ELISA(sandwich ELISAs) were performed using BD OptEIA ELISA Kit and MPO assay was performed using MPO Activity assay kit(ab105136) of Abcam company.
# The data obtained from independent experiment (means±SD) was analyzed by using two-tailed Student's t-test. The differences were considered significant in p<0.05. For survival comparison, the results were graphically described and analyzed according to kaplan-Meier survival analysis, that is, the product-limit method, using log-rank(Mantel-Cox) tests (Prism, version 5.0, GraphPad Software).
# [7] = colon tissue homogenate, treated during 20 days
# [8] = treated during 10 days, vs non-treated mouse
# NQO1, sequence (P15559 whole entry, species assumed): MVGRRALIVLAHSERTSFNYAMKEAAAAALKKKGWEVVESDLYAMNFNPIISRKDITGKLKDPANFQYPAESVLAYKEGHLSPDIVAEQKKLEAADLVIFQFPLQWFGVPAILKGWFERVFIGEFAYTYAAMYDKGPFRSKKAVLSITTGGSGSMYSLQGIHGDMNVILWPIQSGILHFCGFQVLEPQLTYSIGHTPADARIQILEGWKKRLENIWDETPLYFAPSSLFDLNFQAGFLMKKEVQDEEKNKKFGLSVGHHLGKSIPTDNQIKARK
smiles,measurement,setting,value
COc1nn(-c2ccccc2)c2c1C(=O)C(=O)c1ccccc1-2 [Compound 6],NQO1 Activity,NQO1; Compound 0.2 μM,3782 nmol of reduced Cytochrome C/min/μg NQO1 Protein
same,NQO1 Activity,NQO1; Compound 5 μM,7706 nmol of reduced Cytochrome C/min/μg NQO1 Protein
same,NAD+ production,[1],increased in dose-dependent manner
same,overall mitochondrial OCR,[2],increased
same,ATP amounts,[3],increased in dose-dependent manner
same,NAD+/NADH ratio,[4],increased in dose-dependent manner
same,mitochondrial reactive oxygen species amounts,[5],decreased in dose-dependent manner
same,MPO activity,[6]; [7],decreased
same,"cytokine expressions (TNF-α, IL-6, IL-1β and IL-18, ELISA)",[6]; [7],decreased
same,expressions of sirtuin 1 and sirtuin 7,[6]; [7],significantly increased
same,"histological finding of colon tissue (immunohistochemistry, histological score, H&E)","[6]; treated during 7 days, vs non-treated colon tissue",significantly improved than non-treated colon tissue
same,"colitis clinic scores (body weight, stool consistency, bleeding combined)",[6]; [8],significantly ameliorated compared with non-treated mouse
same,degree of body weight loss,[6]; [8],significantly slower than non-treated mouse
same,survival rates,"[6]; treated during 20 days, vs non-treated mouse",higher than non-treated mouse
